ChEMBL document CHEMBL5465560, “Selectivity Literature for EUbOPEN Chemogenomic Library” (2024)
Each block holds one compound with its values, some of them ahead of it.

Key:
[1] = molecular target: Fibroblast growth factor receptor 2 (Homo sapiens) (UniProt P21802); test: Selectivity interaction (Ambit KINOMEscan and KiNATiv profiling in Jurkat cells) EUB0000090b FGFR2; format: cell-based; conditions: at 1 µM
[2] = molecular target: Dual specificity protein kinase CLK2 (Homo sapiens, UniProt P49760); test: Selectivity interaction (KinomeScan (DiscoverX)) EUB0000618a CLK2; conditions: at 10 µM
[3] = molecular target: Tyrosine-protein kinase BTK (Homo sapiens, UniProt Q06187); test: Selectivity interaction (KinomeScan (DiscoverX)) EUB0001619a BTK; conditions: at 1 µM
[4] = molecular target: SRSF protein kinase 3 (Homo sapiens) (UniProt Q9UPE1); test: Selectivity interaction (KinomeScan (DiscoverX)) EUB0001619a SRPK3; conditions: at 1 µM
[5] = molecular target: Dual specificity mitogen-activated protein kinase kinase 1 (Homo sapiens, UniProt Q02750); test: Selectivity interaction (Kinase panel (DSF assay)) EUB0001558a MAP2K1
[6] = molecular target: Serine/threonine-protein kinase SIK3 (Homo sapiens) (UniProt Q9Y2K2); test: Selectivity interaction (KinomeScan (DiscoverX)) EUB0000045b SIK3
[7] = molecular target: Tyrosine-protein kinase HCK (Homo sapiens) (UniProt P08631); test: Selectivity interaction (ActivX KiNativ screen (kinase selectivity in THP-1 cell lysates)) EUB0000639a HCK; format: subcellular; conditions: lysate, at 0.01 µM
[8] = molecular target: T1, Serine/threonine-protein kinase 3 (Homo sapiens) (UniProt Q13188); test: Selectivity interaction (ActivX KiNativ screen (kinase selectivity in THP-1 cell lysates)) EUB0000639a STK3; format: subcellular; conditions: lysate, at 0.01 µM
T1 sequence (whole entry): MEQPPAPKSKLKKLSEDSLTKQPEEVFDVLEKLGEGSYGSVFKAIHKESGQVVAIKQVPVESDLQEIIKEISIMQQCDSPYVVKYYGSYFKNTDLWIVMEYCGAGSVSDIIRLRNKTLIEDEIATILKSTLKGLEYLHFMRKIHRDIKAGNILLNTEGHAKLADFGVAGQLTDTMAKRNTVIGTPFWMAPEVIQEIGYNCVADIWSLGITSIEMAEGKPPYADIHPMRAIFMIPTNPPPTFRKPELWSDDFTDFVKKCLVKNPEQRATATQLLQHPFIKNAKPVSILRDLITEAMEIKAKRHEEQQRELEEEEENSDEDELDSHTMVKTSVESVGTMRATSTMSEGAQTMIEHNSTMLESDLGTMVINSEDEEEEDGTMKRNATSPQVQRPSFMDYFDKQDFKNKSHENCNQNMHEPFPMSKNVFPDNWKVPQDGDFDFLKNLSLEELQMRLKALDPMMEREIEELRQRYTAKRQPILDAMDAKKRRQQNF

[9] = molecular target: Bromodomain adjacent to zinc finger domain protein 2A (Homo sapiens, UniProt Q9UIF9); test: Selectivity interaction (Bromodomain panel (DSF asssay)) EUB0000270b BAZ2A
[10] = molecular target: cGMP-inhibited 3',5'-cyclic phosphodiesterase 3A (Homo sapiens, UniProt Q14432); test: Selectivity interaction (Safety Panel 44tm (Eurofins)) EUB0000162b PDE3A; conditions: at 10 µM
[11] = molecular target: T2, Serine/threonine-protein kinase tousled-like 1 (Homo sapiens) (UniProt Q9UKI8); test: Selectivity interaction (KinomeScan (DiscoverX)) EUB0001049a TLK1; conditions: at 1 µM
T2 sequence (whole entry): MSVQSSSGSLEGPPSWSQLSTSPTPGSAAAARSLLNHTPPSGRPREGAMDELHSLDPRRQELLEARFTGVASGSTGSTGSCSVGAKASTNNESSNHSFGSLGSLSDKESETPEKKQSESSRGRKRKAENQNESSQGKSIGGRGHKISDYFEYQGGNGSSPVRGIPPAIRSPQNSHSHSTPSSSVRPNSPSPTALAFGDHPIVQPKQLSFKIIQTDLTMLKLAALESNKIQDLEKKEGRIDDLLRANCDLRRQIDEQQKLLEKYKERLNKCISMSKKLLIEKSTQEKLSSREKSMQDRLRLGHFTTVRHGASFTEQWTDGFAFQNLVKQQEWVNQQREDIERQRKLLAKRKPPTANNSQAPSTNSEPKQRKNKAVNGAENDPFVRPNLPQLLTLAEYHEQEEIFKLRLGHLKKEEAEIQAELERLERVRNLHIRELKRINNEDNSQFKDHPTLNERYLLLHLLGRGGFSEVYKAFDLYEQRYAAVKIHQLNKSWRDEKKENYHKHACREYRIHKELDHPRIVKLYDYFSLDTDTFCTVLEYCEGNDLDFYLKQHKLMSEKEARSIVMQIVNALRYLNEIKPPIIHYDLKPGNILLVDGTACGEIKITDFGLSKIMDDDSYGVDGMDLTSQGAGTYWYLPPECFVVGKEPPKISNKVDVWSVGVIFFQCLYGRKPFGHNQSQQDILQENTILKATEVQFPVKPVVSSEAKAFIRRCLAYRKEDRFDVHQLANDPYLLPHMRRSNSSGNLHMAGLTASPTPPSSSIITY

[12] = molecular target: T3, Dual serine/threonine and tyrosine protein kinase (Homo sapiens) (UniProt Q6XUX3); test: Selectivity interaction (KinomeScan (DiscoverX)) EUB0000092b DSTYK; conditions: at 10 µM
T3 sequence (whole entry): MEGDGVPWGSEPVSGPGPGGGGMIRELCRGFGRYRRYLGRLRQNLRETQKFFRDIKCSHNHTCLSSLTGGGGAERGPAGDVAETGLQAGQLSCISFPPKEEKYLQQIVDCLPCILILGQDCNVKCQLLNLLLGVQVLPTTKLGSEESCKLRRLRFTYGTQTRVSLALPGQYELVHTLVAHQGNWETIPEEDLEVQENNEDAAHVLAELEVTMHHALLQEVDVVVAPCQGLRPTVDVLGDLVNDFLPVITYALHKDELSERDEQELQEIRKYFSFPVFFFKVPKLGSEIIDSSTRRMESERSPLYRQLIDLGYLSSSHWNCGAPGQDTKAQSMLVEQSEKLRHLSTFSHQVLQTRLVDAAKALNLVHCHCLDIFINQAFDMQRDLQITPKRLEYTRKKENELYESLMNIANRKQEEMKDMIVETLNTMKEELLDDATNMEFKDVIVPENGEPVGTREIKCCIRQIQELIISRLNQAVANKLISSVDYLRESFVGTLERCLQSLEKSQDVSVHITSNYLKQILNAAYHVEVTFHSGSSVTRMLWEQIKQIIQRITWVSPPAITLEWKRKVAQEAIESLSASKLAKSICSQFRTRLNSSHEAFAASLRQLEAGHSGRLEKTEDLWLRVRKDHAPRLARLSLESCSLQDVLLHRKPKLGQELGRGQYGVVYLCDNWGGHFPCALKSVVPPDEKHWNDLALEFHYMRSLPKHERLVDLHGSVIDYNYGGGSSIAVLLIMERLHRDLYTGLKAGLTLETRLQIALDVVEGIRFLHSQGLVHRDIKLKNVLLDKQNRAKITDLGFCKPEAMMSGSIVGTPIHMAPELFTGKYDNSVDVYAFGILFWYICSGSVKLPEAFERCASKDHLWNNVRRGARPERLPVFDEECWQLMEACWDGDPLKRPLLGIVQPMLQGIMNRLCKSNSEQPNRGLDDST

Sequence of Serine/threonine-protein kinase SIK3 (Homo sapiens) (Q9Y2K2 whole entry, looked up): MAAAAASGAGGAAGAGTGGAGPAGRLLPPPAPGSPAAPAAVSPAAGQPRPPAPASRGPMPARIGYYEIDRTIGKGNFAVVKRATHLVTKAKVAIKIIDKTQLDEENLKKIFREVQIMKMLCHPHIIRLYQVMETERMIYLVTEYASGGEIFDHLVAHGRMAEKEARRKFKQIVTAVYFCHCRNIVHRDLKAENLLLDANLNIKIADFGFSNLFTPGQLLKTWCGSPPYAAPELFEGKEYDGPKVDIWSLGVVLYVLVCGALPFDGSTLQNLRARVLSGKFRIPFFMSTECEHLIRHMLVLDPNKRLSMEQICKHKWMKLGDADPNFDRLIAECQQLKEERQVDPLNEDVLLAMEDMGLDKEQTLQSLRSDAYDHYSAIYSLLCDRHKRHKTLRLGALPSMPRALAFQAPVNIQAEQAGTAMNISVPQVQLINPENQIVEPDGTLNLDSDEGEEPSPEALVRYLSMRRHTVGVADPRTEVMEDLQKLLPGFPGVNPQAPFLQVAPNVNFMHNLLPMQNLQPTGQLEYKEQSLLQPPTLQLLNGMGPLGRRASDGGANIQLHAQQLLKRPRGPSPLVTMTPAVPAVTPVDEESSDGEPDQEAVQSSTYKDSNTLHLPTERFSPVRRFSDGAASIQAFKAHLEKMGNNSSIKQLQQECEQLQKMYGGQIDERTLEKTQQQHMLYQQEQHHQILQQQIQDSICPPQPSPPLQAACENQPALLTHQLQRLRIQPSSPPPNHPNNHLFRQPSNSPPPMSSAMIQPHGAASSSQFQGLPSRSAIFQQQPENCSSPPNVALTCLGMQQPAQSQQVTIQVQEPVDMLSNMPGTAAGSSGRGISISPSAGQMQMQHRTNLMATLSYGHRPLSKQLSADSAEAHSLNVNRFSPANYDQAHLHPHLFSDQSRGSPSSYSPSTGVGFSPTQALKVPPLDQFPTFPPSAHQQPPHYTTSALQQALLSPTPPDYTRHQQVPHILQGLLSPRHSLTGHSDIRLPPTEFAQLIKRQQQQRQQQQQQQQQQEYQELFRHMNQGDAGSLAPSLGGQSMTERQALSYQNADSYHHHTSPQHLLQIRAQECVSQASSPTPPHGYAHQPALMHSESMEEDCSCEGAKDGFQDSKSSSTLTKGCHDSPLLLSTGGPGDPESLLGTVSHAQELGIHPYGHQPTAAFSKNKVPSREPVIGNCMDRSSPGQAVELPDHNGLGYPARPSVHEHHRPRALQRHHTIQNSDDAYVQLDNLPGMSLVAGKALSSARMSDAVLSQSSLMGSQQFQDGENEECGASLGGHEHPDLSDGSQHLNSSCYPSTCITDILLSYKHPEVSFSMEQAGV
Sequence of Dual specificity mitogen-activated protein kinase kinase 1 (Q02750 whole entry): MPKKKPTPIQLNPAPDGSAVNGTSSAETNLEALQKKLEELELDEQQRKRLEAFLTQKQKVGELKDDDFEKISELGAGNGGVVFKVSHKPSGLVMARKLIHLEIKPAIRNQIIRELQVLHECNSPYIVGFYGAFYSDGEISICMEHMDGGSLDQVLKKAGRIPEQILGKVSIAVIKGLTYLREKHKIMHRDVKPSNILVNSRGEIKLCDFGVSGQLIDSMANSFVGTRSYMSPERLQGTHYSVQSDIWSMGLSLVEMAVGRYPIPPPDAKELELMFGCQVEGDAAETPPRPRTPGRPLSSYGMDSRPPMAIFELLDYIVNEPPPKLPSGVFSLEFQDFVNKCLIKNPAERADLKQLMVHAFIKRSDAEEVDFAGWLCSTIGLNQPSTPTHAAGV
Sequence of Tyrosine-protein kinase BTK (Q06187 whole entry): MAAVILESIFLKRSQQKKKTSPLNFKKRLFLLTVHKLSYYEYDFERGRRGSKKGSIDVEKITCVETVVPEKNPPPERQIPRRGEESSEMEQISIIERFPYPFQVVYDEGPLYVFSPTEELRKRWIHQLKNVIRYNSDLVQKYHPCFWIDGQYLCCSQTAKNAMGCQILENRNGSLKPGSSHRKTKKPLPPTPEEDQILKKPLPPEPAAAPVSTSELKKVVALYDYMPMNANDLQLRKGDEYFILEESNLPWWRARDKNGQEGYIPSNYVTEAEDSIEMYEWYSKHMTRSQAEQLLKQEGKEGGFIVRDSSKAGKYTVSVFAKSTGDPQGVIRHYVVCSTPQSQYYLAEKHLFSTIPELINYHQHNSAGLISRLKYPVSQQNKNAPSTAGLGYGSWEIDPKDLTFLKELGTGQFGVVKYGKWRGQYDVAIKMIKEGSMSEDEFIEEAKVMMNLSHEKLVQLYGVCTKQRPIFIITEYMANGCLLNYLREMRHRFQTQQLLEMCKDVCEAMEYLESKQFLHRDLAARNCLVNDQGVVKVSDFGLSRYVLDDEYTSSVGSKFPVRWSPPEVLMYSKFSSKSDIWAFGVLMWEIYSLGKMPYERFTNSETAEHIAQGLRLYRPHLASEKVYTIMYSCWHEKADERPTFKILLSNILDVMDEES
Sequence of Fibroblast growth factor receptor 2 (Homo sapiens) (P21802 22-821 limits assumed): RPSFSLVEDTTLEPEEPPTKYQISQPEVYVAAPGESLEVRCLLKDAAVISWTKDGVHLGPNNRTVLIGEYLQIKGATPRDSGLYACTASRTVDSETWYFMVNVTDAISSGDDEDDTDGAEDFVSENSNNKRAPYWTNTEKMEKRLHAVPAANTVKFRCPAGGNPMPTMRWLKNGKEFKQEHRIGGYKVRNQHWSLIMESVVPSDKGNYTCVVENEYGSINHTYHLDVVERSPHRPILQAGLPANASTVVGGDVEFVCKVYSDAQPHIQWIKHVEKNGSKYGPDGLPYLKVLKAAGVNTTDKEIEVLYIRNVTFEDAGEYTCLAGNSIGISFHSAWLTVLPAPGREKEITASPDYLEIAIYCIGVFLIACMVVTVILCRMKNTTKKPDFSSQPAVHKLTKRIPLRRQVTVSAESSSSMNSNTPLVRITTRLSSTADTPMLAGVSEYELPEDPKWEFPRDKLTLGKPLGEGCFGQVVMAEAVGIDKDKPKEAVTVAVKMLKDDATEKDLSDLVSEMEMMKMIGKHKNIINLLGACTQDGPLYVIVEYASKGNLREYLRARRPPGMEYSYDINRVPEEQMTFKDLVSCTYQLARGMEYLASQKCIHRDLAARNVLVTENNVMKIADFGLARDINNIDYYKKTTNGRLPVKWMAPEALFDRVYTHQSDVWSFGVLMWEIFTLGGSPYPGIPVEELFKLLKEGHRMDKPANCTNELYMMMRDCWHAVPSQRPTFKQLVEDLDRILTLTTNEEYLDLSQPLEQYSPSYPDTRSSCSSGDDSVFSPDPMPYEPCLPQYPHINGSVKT
Sequence of cGMP-inhibited 3',5'-cyclic phosphodiesterase 3A (Q14432 whole entry): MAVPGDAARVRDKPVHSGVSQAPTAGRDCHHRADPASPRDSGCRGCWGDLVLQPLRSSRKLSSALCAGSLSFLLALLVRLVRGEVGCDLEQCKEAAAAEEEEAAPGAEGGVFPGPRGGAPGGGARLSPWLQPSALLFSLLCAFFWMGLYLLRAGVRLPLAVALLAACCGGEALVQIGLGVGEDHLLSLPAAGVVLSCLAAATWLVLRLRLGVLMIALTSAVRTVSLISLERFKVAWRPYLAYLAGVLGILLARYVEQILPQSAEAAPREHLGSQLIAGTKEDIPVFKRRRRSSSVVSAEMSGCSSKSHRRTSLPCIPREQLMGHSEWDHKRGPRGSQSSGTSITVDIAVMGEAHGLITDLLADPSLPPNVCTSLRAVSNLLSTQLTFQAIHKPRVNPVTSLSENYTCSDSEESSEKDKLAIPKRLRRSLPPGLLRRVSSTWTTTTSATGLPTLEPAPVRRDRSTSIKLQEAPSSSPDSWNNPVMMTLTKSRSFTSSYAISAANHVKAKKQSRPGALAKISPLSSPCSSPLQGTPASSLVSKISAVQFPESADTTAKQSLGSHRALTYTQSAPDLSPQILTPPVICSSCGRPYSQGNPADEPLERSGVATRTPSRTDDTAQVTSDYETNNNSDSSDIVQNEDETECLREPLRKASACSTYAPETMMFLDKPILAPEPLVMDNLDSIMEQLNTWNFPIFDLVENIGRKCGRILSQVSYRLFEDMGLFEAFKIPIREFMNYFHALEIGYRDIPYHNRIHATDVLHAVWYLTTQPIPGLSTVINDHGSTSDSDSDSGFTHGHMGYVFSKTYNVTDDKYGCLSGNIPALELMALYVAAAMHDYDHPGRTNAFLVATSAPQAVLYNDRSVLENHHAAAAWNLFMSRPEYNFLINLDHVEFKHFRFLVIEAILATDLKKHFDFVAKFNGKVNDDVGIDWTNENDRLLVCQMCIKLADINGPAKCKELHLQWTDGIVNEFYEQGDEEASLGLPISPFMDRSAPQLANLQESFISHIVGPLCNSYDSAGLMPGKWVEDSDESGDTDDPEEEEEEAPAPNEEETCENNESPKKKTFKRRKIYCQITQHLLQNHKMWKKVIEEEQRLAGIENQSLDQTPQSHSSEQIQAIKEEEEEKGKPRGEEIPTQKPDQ
Sequence of SRSF protein kinase 3 (Homo sapiens) (Q9UPE1 whole entry): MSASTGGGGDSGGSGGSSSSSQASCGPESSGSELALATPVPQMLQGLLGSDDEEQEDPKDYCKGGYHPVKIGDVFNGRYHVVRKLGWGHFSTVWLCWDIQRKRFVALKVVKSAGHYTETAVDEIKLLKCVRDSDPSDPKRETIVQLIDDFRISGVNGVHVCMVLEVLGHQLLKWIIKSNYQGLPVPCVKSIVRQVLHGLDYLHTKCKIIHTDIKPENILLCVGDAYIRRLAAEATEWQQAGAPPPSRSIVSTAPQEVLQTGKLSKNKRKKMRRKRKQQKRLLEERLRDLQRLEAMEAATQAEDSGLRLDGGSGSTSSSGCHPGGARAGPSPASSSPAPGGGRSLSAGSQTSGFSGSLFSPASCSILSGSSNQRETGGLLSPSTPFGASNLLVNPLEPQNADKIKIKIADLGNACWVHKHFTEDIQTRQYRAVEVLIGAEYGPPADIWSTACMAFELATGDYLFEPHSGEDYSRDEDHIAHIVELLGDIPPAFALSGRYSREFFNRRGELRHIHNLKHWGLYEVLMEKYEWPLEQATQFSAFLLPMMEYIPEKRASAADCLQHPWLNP

Compound: CN(C)C/C=C/C(=O)Nc1ccc(C(=O)N2CCCC(Nc3ncc(Cl)c(-c4c[nH]c5ccccc45)n3)C2)cc1 (stereo not drawn)
% of control [1]: 67%

Compound: O[C@H]1CC[C@H](Nc2ncc3nc(Nc4c(F)cc(F)cc4F)n([C@H]4CCOC4)c3n2)CC1
% of control [2]: 7.7%

Compound: N#Cc1cccc(-c2c[nH]c3ncnc(N4CCOCC4)c23)c1
% of control [3]: 100%
% of control [4]: 27%

Compound: CC(C)(O)[C@H](F)CN1Cc2cc(NC(=O)c3cnn4cccnc34)c(N3CCOCC3)cc2C1=O
dTM [5]: 1.3 K

Compound: C=CC(=O)Nc1cc(-n2c(=O)ccc3cnc4ccc(-c5ccc(NS(C)(=O)=O)cc5)cc4c32)ccc1C
% of control ([6]; at 1 µM): 100%
% of control ([6]; at 10 µM): 100%

% of inhibition [7]: -14.7%
% of inhibition [8]: -19.5%
Compound: CC[C@@H]1[C@H](F)C(=O)N[C@@H]1COc1nccc2cc(C(N)=O)c(OC)cc12 [ZIMLOVISERTIB]

dTM [9]: -1.5 K
Compound: Cc1cc(CN)cc(C)c1-c1ncn(C)c1-c1cncn1C

Compound: CN(C)C(=O)Cn1cc(-c2ccc(-c3cncc4ccccc34)cc2)cn1
% of control [10]: 82%

Compound: COc1cc(Nc2nc(C)cc(-c3cnn4nc(OC)ccc34)n2)cc(C(F)(F)F)c1
% of control [11]: 100%

Compound: CCC(=O)N1CCN(c2ccc(-n3c(=O)ccc4cnc5ccc(-c6cnc7ccccc7c6)cc5c43)cc2C(F)(F)F)CC1
% of control [12]: 28%
